# Laboratory results: patent publication US4584300A, “Platelet anti-aggregative- and calcium antagonistic -1,4-benzothiazin-3-one derivatives, compositions, and methods of use therefor” (Santen Pharmaceutical Co., Ltd., priority 1983, dated 1986)
# Counter-ions that a name gives are not always drawn.
# Tested on: guinea-pig teania coli
# Assay: Calcium-antagonistic activity: inhibition of CaCl2-evoked contraction of isolated guinea-pig teania coli
# Format: tissue-based
# Conditions: Cavia porcellus, 5 min; 50% inhibition of Ca^++-evoked contraction; CaCl2 3×10^-4 M; 5 minutes exposure; 32° C.
# Protocol: The action potentials on the smooth muscles of uterus, teania coli and portal vein are dependent on calcium ion, and therefor these smooth muscle preparations are useful for screening of calcium antagonists. We measured the calcium-antagonistic activity of the compounds by the method using guinea-pig teania coli preparation.
# Isolated guinea-pig teania coli was suspended in a 20 ml organ bath with Krebs solution at 32° C. and bubbled with 5% carbon dioxide in oxygen. After equilibration, the muscle was washed with Ca^++ -free Krebs solution, and when the muscle had relaxed to basal level, it was suspended in Ca^++ -free-high-K Krebs solution.
# The muscle was exposed to test compounds for 5 minutes before addition of CaCl2, and the contraction evoked by CaCl2 (3×10^-4 M) was recorded isotonically. The calcium-antagonistic activity was represented by the concentration of test compound which elicited 50% inhibition of Ca^++ -evoked contraction (IC50).
row,SMILES,IC50
1,COc1ccc(OCCCN2CCN(CCc3cc(OC)c(OC)c(OC)c3)CC2)c(C2Sc3ccccc3N(C)C2=O)c1 (stereo not shown) [Compound 77],1600 nM
2,CN1C(=O)C(c2ccc(OCCCN(C)C3CCCCC3)cc2)Sc2ccccc21 (stereo not shown) [Compound 73],3400 nM
3,COc1ccc(OCCCN(C)C)c(C2Sc3ccccc3N(C)C2=O)c1 (stereo not shown) [Compound 61],2500 nM
4,COc1ccc(OCCCCN2CCC(C(=O)c3ccccc3)CC2)c(C2Sc3ccccc3N(C)C2=O)c1 (stereo not shown) [Compound 65],1800 nM

# Continued, values first:
row,IC50,SMILES
1,2600 nM,"CN(C)CCCOc1ccc(C2Sc3ccccc3N(C)C2=O)cc1 (stereo not shown) [Compound 72, 3,4-Dihydro-2-[4-(3-dimethylaminopropoxy)phenyl]-4-methyl-3-oxo-2H-1,4-benzothiazine]"
2,3800 nM,"COc1ccc(OCC(O)CN2CCN(CC(=O)c3ccccc3)CC2)c(C2Sc3ccccc3N(C)C2=O)c1 (stereo not shown) [Compound 107, 3,4-Dihydro-2-[5-methoxy-2-[2-hydroxy-3-(4-phenacylpiperazino)propoxy]phenyl]-4-methyl-3-oxo-2H-1,4-benzothiazine dimaleate]"
3,3000 nM,COc1ccc(OCCCCN2CCN(CCc3cc(OC)c(OC)c(OC)c3)CC2)c(C2Sc3ccccc3NC2=O)c1 (stereo not shown) [Compound 75]
4,1600 nM,COc1ccc(OCCCN(C)C2CCCCC2)c(C2Sc3ccccc3N(C)C2=O)c1 (stereo not shown) [Compound 62]
5,3000 nM,COc1ccc(OCCCCCN(C)C2CCCCC2)c(C2Sc3ccccc3N(C)C2=O)c1 (stereo not shown) [Compound 64]
6,1900 nM,CN(CCCOc1ccc(C2Sc3ccccc3NC2=O)cc1)C1CCCCC1 (stereo not shown) [Compound 68]
7,3900 nM,COc1ccc(OCCCCN2CCN(CC(=O)c3ccccc3)CC2)c(C2Sc3ccccc3N(C)C2=O)c1 (stereo not shown) [Compound 79]
8,2600 nM,COc1ccc(OCCCCCN(C)C2CCCCC2)c(C2Sc3ccccc3NC2=O)c1 (stereo not shown) [Compound 58]
9,2000 nM,COc1ccc(OCCCN(C)CCc2ccc(OC)c(OC)c2)c(C2Sc3ccccc3NC2=O)c1 (stereo not shown) [Compound 59]
10,2000 nM,COc1ccc(CCN2CCN(CCCOc3ccc(C4Sc5ccccc5NC4=O)cc3)CC2)cc1OC (stereo not shown) [Compound 71]

# Tested on: not listed separately
# Assay: Acute toxicity test, oral
# Conditions: mouse, in vivo, orally, male ddy-SLC mice
# Protocol: Male ddy-SLC strain mice (4 weeks of age, weighing 19-21 g) were placed in a breeding room of constant temperature and huminity (23±1° C., 55±5%) and fed freely pellet diet and water ad. libitum for a week. Mice showing normal growth were selected for the test. (method of administration)
# Test compounds are suspended in 0.5% tragacanth suspention and administered orally in a dose of 0.5 ml/20 g body weight.
row,SMILES,LD50
1,COc1ccc(OCCCN2CCN(CCc3cc(OC)c(OC)c(OC)c3)CC2)c(C2Sc3ccccc3N(C)C2=O)c1 (stereo not shown) [Compound 77],> 1280 mg/kg
2,CN1C(=O)C(c2ccc(OCCCN(C)C3CCCCC3)cc2)Sc2ccccc21 (stereo not shown) [Compound 73],500 to 1000 mg/kg

# Tested on: blood platelet (rabbit platelet rich plasma)
# Assay: Anti-aggregatory activity: inhibition of collagen- or ADP-induced platelet aggregation in vitro (PRP)
# Format: cell-based
# Conditions: Oryctolagus cuniculus, 50% inhibition of control response, collagen (3 μg/ml) or ADP (3 μM), table does not say which, 37° C.
# Protocol: Blood was obtained from an anesthetized rabbit using 0.1 volumes of 3.8% sodium citrate as anticoagulant. Platelet rich plasma(PRP) was isolated by centrifugation at 650 rpm for 10 minutes at room temperature. After preincubation of PRP (0.25 ml) with various concentrations of test compounds (14 μl) for 1 minute at 37° C., collagen (3 μg/ml:final concentration) or ADP (3 μM:final concentration) was added to induce aggregation and the aggregation profiles were monitored with RIKADENKI six-channel aggregometer. The control experiment contained saline instead of test compound.
# The anti-aggregatory activity was represented by the concentration of test compound which elicited 50% inhibition of control response.
row,SMILES,IC50
1,COc1ccc(OCC(O)CNC(C)(C)C)c(C2Sc3ccccc3N(C)C2=O)c1 (stereo not shown) [Compound 106],1300 nM
2,"COc1ccc(OCCCCN(C)C2CCCCC2)c(C2Sc3ccccc3N(C)C2=O)c1 (stereo not shown) [Compound 63, 3,4-Dihydro-2-[5-methoxy-2-[4-(N-methylcyclohexylamino)butoxy]phenyl]-4-methyl-3-oxo-2H-1,4-benzothiazine oxalate]",3200 nM
3,COc1ccc(OCCCCN(C)C2CCCCC2)c(C2Sc3ccccc3NC2=O)c1 (stereo not shown) [Compound 57],3200 nM
4,COc1ccc(OCCCCN2CCN(CCc3cc(OC)c(OC)c(OC)c3)CC2)c(C2Sc3ccccc3N(C)C2=O)c1 (stereo not shown) [Compound 78],3500 nM
5,"COc1ccc(OCC(O)CNC(C)(C)C)c(C2Sc3ccccc3NC2=O)c1 (stereo not shown) [Compound 105, 2-[2-(3-tert-Butylamino-2-hydroxypropoxy)-5-methoxyphenyl]-3,4-dihydro-3-oxo-2H-1,4-benzothiazine]",1000 nM
6,COc1ccc(OCCCN2CCN(CC(=O)c3ccccc3)CC2)c(C2Sc3ccccc3NC2=O)c1 (stereo not shown) [Compound 76],3200 nM
7,CN(C)CCCOc1ccc(C2Sc3ccccc3NC2=O)cc1 (stereo not shown) [Compound 67],1600 nM
8,"COc1ccc(OCCCN(C)C)c(C2Sc3ccccc3N(CCCN(C)C)C2=O)c1 (stereo not shown) [Compound 82, 3,4-Dihydro-2-[2-(3-dimethylaminopropoxy)-5-methoxyphenyl]-4-(3-dimethylaminopropyl)-3-oxo-2H-1,4-benzothiazine dioxalate]",3200 nM
9,"COc1ccc(OCCCN(C)C)c(C2Sc3ccccc3NC2=O)c1 (stereo not shown) [Compound 55, 3,4-dihydro-2-[2-(3-dimethylaminopropoxy)-5-methoxyphenyl]-3-oxo-2H-1,4-benzothiazine]",3200 nM
